Test results published in patent publication US10947254B2, “Methods for treating ulcerative colitis using 3-((1R,3s,5S)-3-((7-((5-methyl-1H-pyrazol-3-yl)amino)-1,6-naphthyridin-5-yl)amino)-8-azabicyclo[3.2.1]octan-8-yl)propanenitrile” (priority 2015, dated 2021).

Assays:
TYK2 = TYK2 (Homo sapiens (Human), UniProt P29597); format: biochemical
Description: (§1) Assay 1: Biochemical JAK and Off-Target Kinase Assays
(§2) A panel of four LanthaScreen JAK biochemical assays (JAK1, 2, 3 and Tyk2) were carried in a common kinase reaction buffer (50 mM HEPES, pH 7.5, 0.01% Brij-35, 10 mM MgCl2, and 1 mM EGTA). Recombinant GST-tagged JAK enzymes and a GFP-tagged STAT1 peptide substrate were obtained from Life Technologies.
(§3) Serially diluted compounds were pre-incubated with each of the four JAK enzymes and the substrate in white 384-well microplates (Corning) at ambient temperature for 1 h. ATP was subsequently added to initiate the kinase reactions in 10 μL total volume, with 1% DMSO. […] Kinase reactions were allowed to proceed for 1 hour at ambient temperature before a 10 μL preparation of EDTA (10 mM final concentration) and Tb-anti-pSTAT1 (pTyr701) antibody (Life Technologies, 2 nM final concentration) in TR-FRET dilution buffer (Life Technologies) was added. The plates were allowed to incubate at ambient temperature for 1 h before being read on the EnVision reader (Perkin Elmer).
(§4) Results were expressed as pIC50 (negative logarithm of IC50) and subsequently converted to pKi (negative logarithm of dissociation constant, Ki) using the Cheng-Prusoff equation.

JAK1 = JAK1 (Homo sapiens (Human), UniProt P23458); format: biochemical
Description: as §1, §2, §3, §4

JAK3 = JAK3 (Homo sapiens (Human), UniProt P52333); assay: Biochemical JAK assay (LanthaScreen), JAK3
Description: as §1, §2
Serially diluted compounds were pre-incubated with each of the four JAK enzymes and the substrate in white 384-well microplates (Corning) at ambient temperature for 1 h. ATP was subsequently added to initiate the kinase reactions in 10 μL total volume, with 1% DMSO. […] The plates were allowed to incubate at ambient temperature for 1 h before being read on the EnVision reader (Perkin Elmer).
as §4

[1] = test system: IL-4 induced STAT6 phosphorylation in THP-1 human monocytic cells; details: THP-1 cells
JAK2 = JAK2 (Homo sapiens (Human), UniProt O60674); format: biochemical
Description: as §1, §2, §3, §4

[2] = test system: IL-13 induced STAT6 phosphorylation in BEAS-2B human lung epithelial cells; details: BEAS-2B cells
[3] = test system: oxazolone-induced colitis; assay: Mouse model of oxazolone-induced colitis; format: in vivo, BALB/C mice; details: mice, PO, 1, 3, and/or 10 mg/kg BID (doses up to 10 mg/kg BID)
Description: Assay 7: Mouse Model of Oxazalone-Induced Colitis
Oxazolone-induced colitis is an experimental model that has a histological resemblance to human ulcerative colitis (Heller et al. Immunology, 2002, 17, 629-638). Adult BALB/C mice from Harlan were used in the assay. On day 1, animals were lightly anesthetized with isoflurane and the hairs between the shoulder were carefully removed before oxazolone (4%, 150 μL, 4:1 acetone:olive oil formulation) or vehicle solution was slowly applied for skin sensitization. Seven days after skin sensitization, the mice were fasted overnight, anesthetized with isoflurane inhalation, and a 1 mL syringe equipped with a 3.5-F catheter, filled with oxazolone solution, was inserted carefully about 4 cm into the colon of the mouse. Following insertion, 50 μL of the oxazolone solution (1%, 1:1 ethanol:water formulation) was injected very slowly (over 30 sec using an injection pump) into the colon. The catheter was removed and the mice were held vertically (head down) for 2 min to ensure that the entire oxazolone solution remained inside the colon. Drug treatment (PO, BID or TID) or vehicle was initiated a day prior to the oxazolone intrarectal (IR) challenge. Two-day post oxazolone intrarectal challenge, the Disease Activity Index (DAI) was assessed by treatment-blinded experimenters for each mouse according to the criteria score: stool consistency score (0, normal; 2, loose; 4, diarrhea), gross bleeding score (0, absence; 2, blood tinged; 4, presence), and weight loss score (0, none; 1, 1%-5%; 2, 5%-10%; 3, 10%-20%; 4, more than 20%); DAI=average of (stool consistency score+gross bleeding score+weight loss score).
Selected compounds of the invention were tested in the assay. Efficacy in the model is evidenced by a decrease in DAI score as compared with the score from vehicle treated animals.

[4] = test system: splenic NK, B and T cells; assay: Immunosuppression effects in mouse splenic natural killer (NK) cells; format: in vivo, Balb/C mice; details: mice, three days
Description: Adult male Balb/C mice (12-14 weeks of age) from Harlan were used for the study. […] Spleens were harvested 1 or 2 h post last dose and crushed immediately for cell subtype staining. Prior to fixation, fluorophore-labelled antibodies for CD19 (FITC; B cells), CD3e (PE; pan T cells) and DX5 (APC; NK cells) were incubated with splenocyte samples from each animal to allow for simultaneous, multiple subtype % analysis on the flow cytometer. The number of total spleen cells for each animal was measured by Scepter™ 2.0 Handheld Automated Cell Counter. The absolute number of lymphocyte subtype population (e.g., splenic B, T and NK cells) was calculated from the percentage of each subtype times total spleen cells for each animal. A one way ANOVA, with Dunnett's post hoc test, was used to compare the splenic lymphocytes number of the vehicle and test compound groups. The a level was set at p<0.05. Data were presented as the mean±SEM for each group.

TYK2, sequence (P29597 whole entry): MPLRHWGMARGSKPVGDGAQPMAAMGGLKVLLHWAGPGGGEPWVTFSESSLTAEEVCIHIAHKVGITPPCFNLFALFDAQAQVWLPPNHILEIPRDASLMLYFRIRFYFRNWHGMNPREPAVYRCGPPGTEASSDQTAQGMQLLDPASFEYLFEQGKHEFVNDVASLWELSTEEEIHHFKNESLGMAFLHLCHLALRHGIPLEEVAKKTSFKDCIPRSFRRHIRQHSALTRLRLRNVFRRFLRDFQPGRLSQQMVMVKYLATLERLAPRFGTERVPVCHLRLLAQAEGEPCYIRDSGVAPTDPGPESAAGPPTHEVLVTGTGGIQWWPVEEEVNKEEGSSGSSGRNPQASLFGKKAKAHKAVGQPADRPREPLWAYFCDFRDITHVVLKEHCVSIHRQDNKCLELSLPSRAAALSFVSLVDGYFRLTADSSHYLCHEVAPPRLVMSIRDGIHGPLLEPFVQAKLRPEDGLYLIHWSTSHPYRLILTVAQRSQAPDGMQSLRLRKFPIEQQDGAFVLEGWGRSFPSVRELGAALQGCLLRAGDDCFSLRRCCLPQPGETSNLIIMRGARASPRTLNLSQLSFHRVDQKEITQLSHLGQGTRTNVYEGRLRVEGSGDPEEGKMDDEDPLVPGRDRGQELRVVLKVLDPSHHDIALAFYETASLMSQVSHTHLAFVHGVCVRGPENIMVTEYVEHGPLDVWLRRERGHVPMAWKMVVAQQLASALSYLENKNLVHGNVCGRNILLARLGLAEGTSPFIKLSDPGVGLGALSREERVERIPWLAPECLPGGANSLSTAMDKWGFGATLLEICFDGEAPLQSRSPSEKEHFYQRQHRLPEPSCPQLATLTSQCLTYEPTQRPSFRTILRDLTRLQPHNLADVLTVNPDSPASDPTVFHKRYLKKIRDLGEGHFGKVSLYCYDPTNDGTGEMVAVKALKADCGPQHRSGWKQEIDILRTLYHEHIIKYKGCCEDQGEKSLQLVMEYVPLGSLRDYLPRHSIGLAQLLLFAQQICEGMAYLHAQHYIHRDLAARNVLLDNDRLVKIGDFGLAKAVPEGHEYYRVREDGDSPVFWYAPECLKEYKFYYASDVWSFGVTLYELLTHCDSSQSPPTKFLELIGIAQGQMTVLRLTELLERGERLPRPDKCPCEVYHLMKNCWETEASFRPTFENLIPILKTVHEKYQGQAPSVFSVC
JAK1, sequence (P23458 whole entry): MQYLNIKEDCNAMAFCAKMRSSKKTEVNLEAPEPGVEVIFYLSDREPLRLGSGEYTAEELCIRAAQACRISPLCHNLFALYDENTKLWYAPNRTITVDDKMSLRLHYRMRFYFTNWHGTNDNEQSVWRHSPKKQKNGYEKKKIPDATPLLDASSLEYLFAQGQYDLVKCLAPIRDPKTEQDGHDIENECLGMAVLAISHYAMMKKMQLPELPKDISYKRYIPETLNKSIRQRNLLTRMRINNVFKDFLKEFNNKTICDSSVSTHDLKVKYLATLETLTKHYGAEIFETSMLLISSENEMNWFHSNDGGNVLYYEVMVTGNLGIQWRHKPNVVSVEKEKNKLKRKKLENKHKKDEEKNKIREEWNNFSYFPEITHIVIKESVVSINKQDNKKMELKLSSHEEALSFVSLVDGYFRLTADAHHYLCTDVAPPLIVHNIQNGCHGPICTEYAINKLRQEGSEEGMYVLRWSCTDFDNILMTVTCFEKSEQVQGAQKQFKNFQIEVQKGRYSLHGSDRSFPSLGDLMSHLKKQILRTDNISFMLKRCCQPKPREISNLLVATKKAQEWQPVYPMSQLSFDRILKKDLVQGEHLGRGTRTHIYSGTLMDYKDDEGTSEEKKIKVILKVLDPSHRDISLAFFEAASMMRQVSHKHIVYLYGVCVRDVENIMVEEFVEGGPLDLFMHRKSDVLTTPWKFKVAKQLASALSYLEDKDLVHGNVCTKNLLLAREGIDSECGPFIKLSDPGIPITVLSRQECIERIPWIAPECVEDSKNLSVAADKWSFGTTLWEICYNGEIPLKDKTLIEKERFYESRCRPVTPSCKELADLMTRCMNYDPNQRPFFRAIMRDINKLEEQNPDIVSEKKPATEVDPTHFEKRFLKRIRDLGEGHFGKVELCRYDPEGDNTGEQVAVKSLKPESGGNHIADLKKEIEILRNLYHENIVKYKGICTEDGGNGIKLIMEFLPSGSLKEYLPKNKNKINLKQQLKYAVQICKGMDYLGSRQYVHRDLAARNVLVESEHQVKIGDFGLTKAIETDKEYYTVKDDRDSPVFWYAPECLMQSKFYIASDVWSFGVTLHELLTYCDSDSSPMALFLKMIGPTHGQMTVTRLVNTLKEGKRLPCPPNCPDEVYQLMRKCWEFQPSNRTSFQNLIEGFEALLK
JAK3, sequence (P52333 whole entry): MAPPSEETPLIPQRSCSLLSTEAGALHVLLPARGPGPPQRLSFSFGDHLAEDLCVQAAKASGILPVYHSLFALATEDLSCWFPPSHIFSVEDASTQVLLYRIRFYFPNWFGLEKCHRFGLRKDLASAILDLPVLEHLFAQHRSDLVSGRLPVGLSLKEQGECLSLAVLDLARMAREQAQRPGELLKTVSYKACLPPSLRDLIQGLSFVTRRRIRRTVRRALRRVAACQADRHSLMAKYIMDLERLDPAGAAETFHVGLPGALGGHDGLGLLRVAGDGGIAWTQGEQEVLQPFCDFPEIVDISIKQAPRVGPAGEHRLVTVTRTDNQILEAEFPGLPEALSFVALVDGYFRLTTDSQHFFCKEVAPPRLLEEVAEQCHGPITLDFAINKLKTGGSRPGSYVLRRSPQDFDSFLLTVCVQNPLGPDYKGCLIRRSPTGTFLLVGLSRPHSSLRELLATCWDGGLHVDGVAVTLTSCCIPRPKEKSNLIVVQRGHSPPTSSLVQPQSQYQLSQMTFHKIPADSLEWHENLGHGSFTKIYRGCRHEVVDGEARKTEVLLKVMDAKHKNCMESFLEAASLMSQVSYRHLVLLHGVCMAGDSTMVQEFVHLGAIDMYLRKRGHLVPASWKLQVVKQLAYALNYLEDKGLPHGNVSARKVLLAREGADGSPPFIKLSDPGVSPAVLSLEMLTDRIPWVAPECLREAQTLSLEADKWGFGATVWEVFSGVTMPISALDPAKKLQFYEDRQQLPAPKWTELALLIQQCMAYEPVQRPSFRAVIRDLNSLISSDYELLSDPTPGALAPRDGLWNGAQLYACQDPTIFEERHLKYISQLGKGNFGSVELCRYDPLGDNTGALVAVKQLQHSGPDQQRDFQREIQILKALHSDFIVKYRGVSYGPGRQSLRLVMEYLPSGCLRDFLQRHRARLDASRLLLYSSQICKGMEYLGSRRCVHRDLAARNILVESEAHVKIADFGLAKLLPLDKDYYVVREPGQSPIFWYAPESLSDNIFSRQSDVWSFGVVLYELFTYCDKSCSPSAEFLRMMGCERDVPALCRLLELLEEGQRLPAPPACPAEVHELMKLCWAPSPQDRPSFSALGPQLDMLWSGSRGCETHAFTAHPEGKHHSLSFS
JAK2, sequence (O60674 whole entry): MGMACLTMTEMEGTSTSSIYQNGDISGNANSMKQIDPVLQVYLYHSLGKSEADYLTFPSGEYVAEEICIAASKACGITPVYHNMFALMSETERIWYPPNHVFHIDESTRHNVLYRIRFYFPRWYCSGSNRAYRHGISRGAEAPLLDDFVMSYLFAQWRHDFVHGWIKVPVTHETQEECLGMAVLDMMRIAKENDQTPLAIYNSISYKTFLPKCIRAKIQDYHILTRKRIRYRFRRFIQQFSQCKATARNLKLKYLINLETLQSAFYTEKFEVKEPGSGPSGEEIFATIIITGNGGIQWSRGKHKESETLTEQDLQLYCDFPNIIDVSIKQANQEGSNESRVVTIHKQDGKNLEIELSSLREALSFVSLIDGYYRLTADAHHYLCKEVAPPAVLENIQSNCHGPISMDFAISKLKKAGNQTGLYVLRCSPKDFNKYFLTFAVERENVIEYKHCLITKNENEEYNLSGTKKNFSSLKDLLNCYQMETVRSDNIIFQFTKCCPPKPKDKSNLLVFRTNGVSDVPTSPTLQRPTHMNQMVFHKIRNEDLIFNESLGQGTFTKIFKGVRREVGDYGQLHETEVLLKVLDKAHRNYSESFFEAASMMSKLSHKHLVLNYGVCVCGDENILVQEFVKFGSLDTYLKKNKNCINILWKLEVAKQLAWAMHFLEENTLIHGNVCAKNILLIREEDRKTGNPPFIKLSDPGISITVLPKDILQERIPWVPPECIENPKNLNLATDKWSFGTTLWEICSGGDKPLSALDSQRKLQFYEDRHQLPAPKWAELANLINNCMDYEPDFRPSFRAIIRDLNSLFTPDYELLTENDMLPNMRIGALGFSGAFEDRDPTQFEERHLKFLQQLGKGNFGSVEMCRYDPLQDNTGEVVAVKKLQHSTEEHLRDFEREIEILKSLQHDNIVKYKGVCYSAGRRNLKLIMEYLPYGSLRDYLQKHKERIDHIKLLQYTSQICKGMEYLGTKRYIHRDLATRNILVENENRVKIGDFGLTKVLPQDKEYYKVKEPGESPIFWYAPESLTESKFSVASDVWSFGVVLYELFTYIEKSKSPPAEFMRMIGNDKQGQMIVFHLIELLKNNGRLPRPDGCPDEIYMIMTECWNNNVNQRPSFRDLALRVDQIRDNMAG

Structure (SMILES) | Tyk 2 (pKi) (TYK2) | JAK 1 (pKi) (JAK1) | JAK 3 (pKi) (JAK3) | THP-1 IL4 pIC50 [1] | JAK 2 (pKi) (JAK2) | BEAS2B pIC50 [2] | decrease in DAI score as compared with vehicle treated animals [3] | splenic NK cell counts ([4]; 30 mg/kg PO BID) | treatment effect on B and T cell populations ([4]; PO BID)
Cc1cc(Nc2cc3ncccc3c(N[C@@H]3C[C@H]4CC[C@@H](C3)N4C(=O)C3(C(F)(F)F)CC3)n2)n[nH]1 [Example 2-7] | C (C represents a pKi value between 7 and 9 (Ki between 100 nM and 1 nM)) | B (B represents a pKi value between 9 and 10 (Ki between 1 nM and 0.1 nM)) | C (C represents a pKi value between 7 and 9 (Ki between 100 nM and 1 nM)) | B (B represents a pEC50 value between 6.7 and 7.5 (EC50 between 200 nM and 32 nM)) | – | – | – | – | –
Cc1cc(Nc2cc3ncccc3c(N[C@@H]3C[C@H]4CC[C@@H](C3)N4C(=O)C3(C#N)CC3)n2)n[nH]1 [Example 2-8] | C (C represents a pKi value between 7 and 9 (Ki between 100 nM and 1 nM)) | B (B represents a pKi value between 9 and 10 (Ki between 1 nM and 0.1 nM)) | – | B (B represents a pEC50 value between 6.7 and 7.5 (EC50 between 200 nM and 32 nM)) | B (B represents a pKi value between 9 and 10 (Ki between 1 nM and 0.1 nM)) | – | – | – | –
Cc1cc(Nc2cc3ncccc3c(N[C@@H]3C[C@H]4CCC[C@@H](C3)N4C(=O)C3(C(F)(F)F)CC3)n2)n[nH]1 [Example 2-19] | B (B represents a pKi value between 9 and 10 (Ki between 1 nM and 0.1 nM)) | B (B represents a pKi value between 9 and 10 (Ki between 1 nM and 0.1 nM)) | C (C represents a pKi value between 7 and 9 (Ki between 100 nM and 1 nM)) | A (A represents a pEC50 value ≥7.5 (EC50≤32 nM)) | – | – | – | – | –
Cc1cc(Nc2cc3ncccc3c(N[C@@H]3C[C@H]4CCC[C@@H](C3)N4C(=O)C3(C#N)CC3)n2)n[nH]1 [Example 2-20] | C (C represents a pKi value between 7 and 9 (Ki between 100 nM and 1 nM)) | B (B represents a pKi value between 9 and 10 (Ki between 1 nM and 0.1 nM)) | – | A (A represents a pEC50 value ≥7.5 (EC50≤32 nM)) | B (B represents a pKi value between 9 and 10 (Ki between 1 nM and 0.1 nM)) | A (A represents a pEC50 value ≥7.5 (EC50≤32 nM)) | – | – | –
Cc1cc(Nc2cc3ncccc3c(N[C@@H]3C[C@H]4CCC[C@@H](C3)N4C(=O)C(C)(C)CO)n2)n[nH]1 [Example 2-22] | – | – | – | – | – | A (A represents a pEC50 value ≥7.5 (EC50≤32 nM)) | did not exhibit a statistically significant decrease | – | –
Cc1cc(Nc2cc3ncccc3c(N[C@@H]3C[C@H]4CCC[C@@H](C3)N4C(=O)Cc3ccccc3)n2)n[nH]1 [Example 2-24] | – | – | – | A (A represents a pEC50 value ≥7.5 (EC50≤32 nM)) | – | A (A represents a pEC50 value ≥7.5 (EC50≤32 nM)) | did not exhibit a statistically significant decrease | – | –
Cc1cc(Nc2cc3ncccc3c(N[C@@H]3C[C@H]4CC[C@@H](C3)N4S(=O)(=O)CC(C)C)n2)n[nH]1 [Example 4-3] | – | – | – | A (A represents a pEC50 value ≥7.5 (EC50≤32 nM)) | – | A (A represents a pEC50 value ≥7.5 (EC50≤32 nM)) | did not exhibit a statistically significant decrease | – | –
Cc1cc(Nc2cc3ncccc3c(N[C@@H]3C[C@H]4CC[C@@H](C3)N4S(=O)(=O)Cc3ccccc3)n2)n[nH]1 [Example 4-13] | – | – | – | – | – | A (A represents a pEC50 value ≥7.5 (EC50≤32 nM)) | did not exhibit a statistically significant decrease | – | –
Cc1cc(Nc2cc3ncccc3c(N[C@@H]3C[C@H]4CCC[C@@H](C3)N4S(=O)(=O)C3CC3)n2)n[nH]1 [Example 4-18] | – | – | – | A (A represents a pEC50 value ≥7.5 (EC50≤32 nM)) | – | A (A represents a pEC50 value ≥7.5 (EC50≤32 nM)) | did not exhibit a statistically significant decrease | – | –
COCCS(=O)(=O)N1[C@@H]2CCC[C@H]1C[C@H](Nc1nc(Nc3cc(C)[nH]n3)cc3ncccc13)C2 [Example 4-19] | – | – | – | A (A represents a pEC50 value ≥7.5 (EC50≤32 nM)) | – | A (A represents a pEC50 value ≥7.5 (EC50≤32 nM)) | did not exhibit a statistically significant decrease | – | –
Cc1cc(Nc2cc3ncccc3c(N[C@@H]3C[C@H]4CCC[C@@H](C3)N4S(=O)(=O)CC3CC3)n2)n[nH]1 [Example 4-23] | – | – | – | A (A represents a pEC50 value ≥7.5 (EC50≤32 nM)) | – | A (A represents a pEC50 value ≥7.5 (EC50≤32 nM)) | did not exhibit a statistically significant decrease | – | –
Cc1cnc2cc(Nc3cc(C)[nH]n3)nc(N[C@@H]3C[C@H]4CC[C@@H](C3)N4S(C)(=O)=O)c2c1 [Example 6-5] | B (B represents a pKi value between 9 and 10 (Ki between 1 nM and 0.1 nM)) | B (B represents a pKi value between 9 and 10 (Ki between 1 nM and 0.1 nM)) | C (C represents a pKi value between 7 and 9 (Ki between 100 nM and 1 nM)) | A (A represents a pEC50 value ≥7.5 (EC50≤32 nM)) | – | A (A represents a pEC50 value ≥7.5 (EC50≤32 nM)) | – | – | –
Cc1cnc2cc(Nc3cc(C)[nH]n3)nc(N[C@@H]3C[C@H]4CCC[C@@H](C3)N4S(C)(=O)=O)c2c1 [Example 6-8] | B (B represents a pKi value between 9 and 10 (Ki between 1 nM and 0.1 nM)) | B (B represents a pKi value between 9 and 10 (Ki between 1 nM and 0.1 nM)) | B (B represents a pKi value between 9 and 10 (Ki between 1 nM and 0.1 nM)) | A (A represents a pEC50 value ≥7.5 (EC50≤32 nM)) | – | A (A represents a pEC50 value ≥7.5 (EC50≤32 nM)) | – | – | –
COC(=O)c1cnc2cc(Nc3cc(C)[nH]n3)nc(N[C@@H]3C[C@H]4CC[C@@H](C3)N4CCCF)c2c1 [Example 6-44] | – | B (B represents a pKi value between 9 and 10 (Ki between 1 nM and 0.1 nM)) | – | – | – | – | – | – | –
COC(=O)c1cnc2cc(Nc3cc(C)[nH]n3)nc(N[C@@H]3C[C@H]4CCC[C@@H](C3)N4C3CCOC(=O)C3)c2c1 (some centres unmarked) [Example 6-48] | C (C represents a pKi value between 7 and 9 (Ki between 100 nM and 1 nM)) | B (B represents a pKi value between 9 and 10 (Ki between 1 nM and 0.1 nM)) | C (C represents a pKi value between 7 and 9 (Ki between 100 nM and 1 nM)) | B (B represents a pEC50 value between 6.7 and 7.5 (EC50 between 200 nM and 32 nM)) | – | – | – | – | –
C[C@@H]1CCN(C(=O)CC#N)C[C@@H]1N(C)c1ncnc2[nH]ccc12 [tofacitinib, reference compound] | – | – | – | – | – | – | – | significantly decreased | No treatment effect
